Where no end group is shown, it is not given here. [ ]: non-standard residue; d: D form.
Experiments:
[1] = test system: SaOS-2 cells; assay: cAMP production in SaOS-2 cells; type: cell-based, Human; conditions: 60 min, 200 μM IBMX
Experimental: SaOS-2 cells were seeded at a density of 5e4 cells in 96-well plates. Cells were cultured in α-MEM 1× media supplemented with 10% FBS for 24 hours in order to allow attachment to the plate. Before the experiment, cells were washed with Hank's Balanced Salt Solution (HBSS). Cells were then incubated with various concentrations (1e-12-1e-6 M) of test peptides of the invention supplemented with 200 μM of 3-isobutyl-1-methylxanthine (IBMX). Plates were then incubated for 60 minutes at 37° C. Following this step, cells were washed 3 times with 150 μl PBS. Cell lysis was performed with 150 μl cell lysis buffer (R&D Systems) and a freeze (−20° C.)-thaw (37° C.) cycle was carried out. The contents were then collected into 500 μl tubes and centrifuged at 600 rpm for 10 min (4° C.). The supernatant was collected and cAMP was measured using a cAMP assay kit (R&D Systems) according to the manufacturer's instructions. The concentration of cAMP was calculated from a standard curve of cAMP ranging from 0 to 240 pmol/ml.

[2] = test system: SaOS-2 cells; assay: TGF-β release from SaOS-2 cells; type: cell-based, Human; conditions: 1e-12-1e-6 M, 8 hours
Experimental: Human osteoblast SaOS-2 cells [sourced from The European Collection of Cell Cultures (ECACC)] were seeded at a density of 2e5 cells/well in 24 well plates [Nunc, Roskilde, Denmark]. The cells were incubated in media [Life Technologies] supplemented with 10% FBS. Before adding test peptides of the invention, the media were changed with fresh 0.1% FBS-containing media 24 h previously. On the day of experimentation, media were removed and 1 ml of respective peptides of the invention GIP/Xenin, GIP/Xenin Asp and GIP/Xenin Glu [(DAla2)GIP/xenin-8-Gln, (DAla2)GIP/xenin-8-Gln(L-Asp), and (DAla2)GIP/xenin-8-Gln(L-Glu) respectively] (1e-12-1e-6 M) were added to each well. The plates were then incubated at 37° C. for a period of 8 hours. After incubation, media was collected and TGF-β released in the supernatant measured using a TGF-β Immunoassay kit (Quantikine, R&D Systems) according to the manufacturer's instructions. The concentration of TGF-β was calculated from a standard curve of recombinant human TGF-β ranging from […].

[3] = test system: SaOS-2 cells; assay: IGF-1 release from SaOS-2 cells; type: cell-based, Human; conditions: 1e-12-1e-6 M, 8 hours
Experimental: SaOS-2 cells were seeded at a density of 2e5 cells/well in 6-well plates in 10% FBS containing media. Media were changed 24 hours prior to experimentation with 0.1% FBS. Media was then removed, followed by an addition of 1 ml of test peptides of the invention (1e-12-1e-6 M). Plates were incubated at 37° C. for 8 hours. After incubation, media was collected and IGF-1 released in the supernatant was measured using IGF-1 Immunoassay kit (Quantikine, R&D Systems) according to the manufacturer's instructions. The concentration of IGF-1 in the samples was determined from a standard curve of recombinant human IGF-1 in the range of 0-60 ng/ml.

[4] = test system: high fat fed mice; assay: 42 day once daily study in high fat fed mice (body weight, composition, food intake, non-fasting glucose); type: in vivo; conditions: 25 nmol/kg once daily, 42 days
Source text: (§1) FIG. 10 illustrates body weight as measured for 3 days before and 42 days during (indicated by black horizontal bar) once daily treatment with saline vehicle (0.9% w/v NaCl), GIP/Xenin hybrid, GIP/Xenin hybrid Asp and GIP/Xenin hybrid Glu (each peptide at 25 nmol/kg bw). Values represent means±SEM for 5 mice;
FIG. 11A-11B illustrate (FIG. 11A) % Fat mass and (FIG. 11B) % Lean mass as measured by DEXA scanning in high fat fed mice following 42 days treatment with GIP/Xenin hybrid, GIP/Xenin hybrid Asp and GIP/Xenin hybrid Glu. Values represent means±SEM for 3-5 mice;
as §1, with “12” for “10”, “cumulative energy intake” for “body weight”, “days” for “days during”, “bar) during” for “bar)”, “3-5 mice. ^ΔP<0.05, ^ΔΔP<0.01, ^ΔΔΔP<0.001 compared to saline control;” for “5 mice;”
as §1, with “13” for “10”, “non fasting blood glucose” for “body weight”, “mice; […]” for “mice;”

[5] = test system: high fat fed mice; assay: Glucose tolerance test after 42 days treatment; type: in vivo
Experimental: FIG. 14A-14B illustrate tests conducted after once daily treatment with saline, GIP/Xenin hybrid, GIP/Xenin hybrid Asp and GIP/Xenin hybrid Glu for 42 days. (FIG. 14A) Blood glucose before and after i.p injection of glucose (18 mmol/kg bw) alone in 18 hr fasted mice. (FIG. 14B) AUC values for blood glucose for 0-105 min are shown in insets. Values represent means±SEM for 6-7 mice. *P<0.05, **P<0.01 and ***P<0.001 compared to saline control;

[6] = test system: high fat fed mice; assay: DEXA bone mineral density and content after 42 days treatment; type: in vivo; conditions: P<0.05 and P<0.01 respectively
Experimental: The DEXA (dual energy X-ray absorptiometry) analysis [Lunar PIXImus, Inside Outside Sales] was performed on unconscious mice and the whole body was scanned. Various parameters like bone mineral density (BMD), bone mineral content (BMC), lean mass, fat mass and percentage of total fat were measured according to the manufacturer's instructions.

[7] = test system: high fat fed mice; assay: Insulin tolerance test after 42 days treatment; type: in vivo; conditions: insulin 25 U/kg i.p., non-fasted
Experimental: FIG. 15A-15B illustrate Blood glucose (FIG. 15A) and blood glucose AUC (FIG. 15B) values for 0-105 min (shown in inset) following 42 days treatment with saline, GIP/Xenin hybrid, GIP/Xenin hybrid Asp and GIP/Xenin hybrid Glu (each peptide at 25 nmol/kg bw), and subsequent insulin (25 U/kg bw) injection intraperitoneally (at t=0) in non-fasted mice. Values represent means±SEM for 5 mice. *P<0.05, **P<0.01 and ***P<0.001 compared to saline control;

[8] = test system: high fat fed mice; assay: Three-point bending of bone after 42 days treatment; type: in vivo
Experimental: Femur and tibia bones were extracted at the end of the experiment using a scalpel and fine scissors, soft tissue removed and stored in 70% ethanol. Three-point bending strength was measured with a constant span length of 10 mm. Femurs were positioned horizontally with the anterior surface facing upwards, centered on the support and the pressing force was applied vertically to the midshaft of the bone. Each bone was tested with a loading speed of 2 mm/min until failure with a 90 N load cell. The load-time curve obtained was converted into a load-displacement curve by the MTS testSuite TW software (MTS, Créteil, France). Ultimate load and ultimate displacement were respectively defined as the maximum load and maximum displacement recorded before break-down of the bone. Stiffness was calculated as the slope of the elastic deformation of the bone. The total absorbed energy was defined as the total area under the load-displacement curve and represents the total energy absorbed by the midshaft femur. The yield was defined as the load necessary to initiate the transformation from elastic to plastic deformation. The post-yield energy was defined as the area under the load-displacement curve from yield until failure and represents the energy absorbed by bone during plastic deformation.

[9] = test system: high fat fed mice; assay: Microcomputed tomography of tibia trabecular and cortical bone after 42 days treatment; type: in vivo; conditions: microCT
Experimental: The tibia was used to investigate trabecular and cortical bone microstructural morphology by microCT analysis with a Skyscan 1172 microtomograph (Bruker, Kontich, Belgium) equipped with an X-ray tube working at 69 kV/100 μA. The pixel size was fixed at 8.3 μm, the rotation step at 0.25° and exposure was performed with a 0.5-mm aluminum filter. Bone mass and morphometry parameters were calculated with the CTan software (release 1.11.4.2, Bruker). The trabecular parameters were assessed at the volume of interest (VOI), located 1 mm below the growth plate and spanning 2.5 mm in height. Trabecular bone volume (BV/TV, in %), trabecular number (Tb.N, in 1/mm) and trabecular separation (Tb.Sp, in μm) were measured according to guidelines and nomenclature proposed by the American Society for Bone and Mineral Research. Cortical parameters were determined at the midshaft tibia with a lab-made routine using ImageJ. […] (Ma.Ar), cortical area (Ct.Ar), total area (Tt.Ar), cortical thickness (Ct.Th, in μm) and cross-sectional moment of inertia (J in mm4) were also measured according to guidelines and nomenclature on bone histomorphometry proposed by the American Society for Bone and Mineral Research.

| Substance | Lowest effective concentration for cAMP production [1] [nM] | TGF-β release from SaOS-2 cells [2] | IGF-1 release from SaOS-2 cells [3] | Body weight, fat and lean mass, food intake [4] | Blood glucose overall AUC after glucose challenge ([5]; 0-105 min, glucose 18 mmol/kg) | Blood glucose at 30, 60 and 105 min after glucose challenge ([5]; glucose 18 mmol/kg i.p.) | Tibia bone mineral density [6] | Blood glucose concentrations after glucose challenge ([5]; glucose 18 mmol/kg) | Hypoglycaemic response to exogenous insulin [7] | Bone ultimate load and stiffness [8] | Cortical bone area, thickness and moment of inertia / structural properties of cortical bone [9] |
| --- | --- | --- | --- | --- | --- | --- | --- | --- | --- | --- | --- |
| TYR-(d)ALA-GLU-GLY-THR-PHE-ILE-SER-ASP-TYR-SER-ILE-ALA-MET-HIS-PRO-GLN-GLN-PRO-TRP-ILE-LEU-GLY-ALA-ALA-ASP-ASP-ASP-ASP-ASP-ASP (Y[dA]EGTFISDYSIAMHPQQPWILGAADDDDDD; also: Gln side-chain L-Asp modification; listed as Homo sapiens) [GIP/Xenin Asp] | 10 | dose-dependently stimulated | dose-dependently stimulated | no significant change | significant (P<0.05) reduction in overall AUC measures | significantly (P<0.01 to P<0.001) | reduced |  |  |  |  |
| TYR-(d)ALA-GLU-GLY-THR-PHE-ILE-SER-ASP-TYR-SER-ILE-ALA-MET-HIS-PRO-GLN-GLN-PRO-TRP-ILE-LEU-GLY-ALA-ALA-GLU-GLU-GLU-GLU-GLU-GLU (Y[dA]EGTFISDYSIAMHPQQPWILGAAEEEEEE; also: Gln side-chain L-Glu modification; listed as Homo sapiens) [GIP/Xenin Glu] | 1000 | dose-dependently stimulated | dose-dependently stimulated | no significant change |  |  | reduced | also reduced blood glucose concentrations, but not as effectively as GIP/Xenin Asp | more pronounced hypoglycaemic response | negative effects (P<0.05 to P<0.001) | reduced |

— patent publication US11738065B2, “Polypeptides and analogues thereof for use in the treatment of diabetes and bone disorders” (UNIVERSITY OF ULSTER, priority 2015, dated 2023)
